From patent publication US8450300B2 (priority 2009, dated 2013)
“Also recorded” adds a separate entry of the source. Where two headings read alike, the source gives them in different places.

Tests used:
[1] = Multi-dose pharmacokinetics 500 mg TID, 13 doses; type: in vivo, human; conditions: for AUC: Day 5 (13 doses)
Description: The pharmacokinetics of multiple oral doses of CEM-102 (sodium fusidate) 500 mg tablets in healthy subjects was evaluated. Subjects were randomized in a 3:1 ratio and received either CEM-102 500 mg (2×250 mg; n=18) or placebo tablets TID (n=6) for 4.5 days for a total of 13 doses.
Blood samples for assay of plasma concentrations of CEM-102 and placebo were collected pre-dose on Day 1 and at 24, 48, 72, and 96 hours. Samples were also collected at the following times after the morning dose on Day 5: 0.5, 1, 1.5, 2, 2.5, 3, 3.5, 4, 6, 8, 12, 16, 24, 36, and 48 hours.
Plasma concentrations of CEM-102 were assayed at MicroConstants, Inc. in San Diego, Calif., USA using a validated LC/MS/MS method with a lower limit of quantitation (LLOQ) of 20.0 ng/mL.

[2] = Dose escalation study, single/multiple dose and loading dose regimens: safety and tolerability; type: in vivo
Description: The pharmacokinetics (PK), safety, and tolerability of single and multiple doses of CEM-102 (sodium fusidate) were evaluated in a single-center, Phase 1, double-blind, randomized, placebo-controlled, dose-escalating study in 32 healthy adult subjects enrolled in 4 dosage groups (550, 1100, 1650, and 2200 mg). In each cohort, six subjects were to receive CEM-102 and two were to receive placebo in a single dose (Period 1) and then multiple doses BID for a total of 11 doses over 5.5 days (Period 2). The two dosing periods were separated by a seven-day washout period between the single dose in Period 1 and the first dose in Period 2.
Dosing proceeded as planned for Cohorts 1 to 3; however, Cohort 4 received only the single dose of 2200 mg (Period 1), because dose-limiting gastrointestinal intolerance was observed after multiple doses of 1650 mg BID in Cohort 3. Period 2 for Cohort 4 evaluated an initial loading dose regimen, and a second loading dose regimen was evaluated in an additional cohort (Cohort 5) per a protocol amendment.
The protocol was amended for assessment of the safety, tolerability, and PK of front-loaded dose regimens comprised of a higher dose of CEM-102 on Day 1 followed by lower doses for the subsequent 6.5 days. All loading dose regimens employed multiple doses lower than the maximum tolerated dose (MTD) established in the first part of the study (1650 mg administered as multiple doses).
The loading dose regimens assessed were 1100 mg BID on Day 1 and 550 mg BID on the following 6.5 days in Period 2 of Cohort 4 and 1650 mg BID on Day 1 and 825 mg BID on the following 6.5 days in Cohort 5.

[3] = Single oral dose bioavailability study, fed/fasted crossover, plasma fusidic acid; conditions: human, in vivo, 500 mg, 500 mg single oral dose; for AUC(0-t): read-out: AUC0-t, geometric mean (CV %); for AUC(0-inf): read-out: AUCinf, geometric mean (CV %); for Cmax: read-out: Cmax, geometric mean (CV %); for half-life: read-out: t1/2, arithmetic mean ± SD (converted); for AUC: read-out: total exposure (AUC)
Description: This was a single-center, Phase 1, double-blind, randomized, 3 period, fed/fasted crossover bioequivalence study designed to evaluate the relative bioavailability and safety and tolerability of a single oral dose of CEM-102 500 mg compared to Fucidin® 500 mg in healthy subjects.
Subjects were randomized in equal numbers to the 4 treatment sequences (Table 3).
Study Period 1, 2, and 3 (Days 1, 15, and 29): One dose of study drug 500 mg (2×250 mg) of CEM-102 or Fucidin® was given at 8:00 AM (˜30 minutes). On Day 1 of Study Periods 1 and 2 (Days 1 and 15), subjects fasted overnight for at least 10 hours prior to dosing. On Day 1 of Study Period 3 (Day 29), subjects were given a high fat caloric meal which was to be entirely consumed within 30 minutes prior to study drug administration.
Blood samples for assay of plasma concentrations were collected on Days 1, 15 and 29 at pre-dose and 0.5, 1, 1.5, 2, 2.5, 3, 3.5, 4, 6, 8, 12, 16, 24, 36, and 48 hours after the dose. Plasma concentrations were assayed at MicroConstants, Inc. in San Diego, Calif. using a validated liquid chromatography with dual tandem mass spectrometry (LC/MS/MS) method with a lower limit of quantitation (LLOQ) of 20.0 ng/mL

[4] = after the single dose of 2200 mg

With `CC(=O)O[C@H]1C[C@@]2(C)[C@@H](C[C@@H](O)[C@H]3[C@@]4(C)CC[C@@H](O)[C@@H](C)[C@@H]4CC[C@@]32C)/C1=C(\CCC=C(C)C)C(=O)O` [CEM-102, Sodium fusidate] the trough level ([1]; 500 mg TID, prior to dosing on Day 5) was 105 µg/mL, the “Cmaxss, geometric mean” value ([1]; human, in vivo, 500 mg) was 145680 ng/mL and the AUC ([1]; human, in vivo, 500 mg, 500 mg TID, read-out: AUC0-tss, geometric mean) was 3560 µg·h/mL. For the same compound, the AUC ([1]; human, in vivo, 500 mg, 500 mg TID, read-out: AUC0-τss, geometric mean) was 1030 µg·h/mL, the “maximum tolerated dose (MTD)” value ([2]; administered as multiple doses) was 1650 mg and the subjects reporting nausea ([2]; after multiple doses, all cohorts) was 9 subjects. The “changes in physical examinations, vital signs, ECGs, or laboratory parameters” value ([2]; after single doses) was “no clinically significant changes”, the “subjects with nausea alone” value [2, 4] was 2 and the “subjects with nausea and vomiting” value [2, 4] was 1 subject. For the same compound, the safety and tolerability ([2]; doses up to 1650 mg BID for 5.5 days) was “safe and generally well tolerated”, the “Adverse Event (treatment-emergent, per subject and day)” value ([2]; loading dose regimen 1100/550 mg) was “Urinary; also recorded: Nausea; also recorded: Constipation” and the tolerability ([2]; loading dose regimens 1100/550 mg and 1650/825 mg, total 7.5 days) was “very well tolerated”. For the same compound, the “Adverse Event (treatment-emergent, per subject and day)” value ([2]; multiple dose 550 mg BID cohort, blinded listing) was “Nausea; also recorded: Epigastric pain; also recorded: Dizziness; also recorded: Elevated BP; also recorded: Headache; also recorded: Tachycardia; also recorded: Pharyngitis; also recorded: Hoarseness; also recorded: Sore throat”, the “Adverse Event (treatment-emergent, per subject and day)” value ([2]; multiple dose 1100 mg BID cohort, blinded listing) was “Heartburn; also recorded: Constipation; also recorded: Skin Irritation; also recorded: Nausea; also recorded: Dizziness; also recorded: Viral URI” and the subjects reporting nausea ([2]; multiple doses 550 mg BID) was 2 subjects. The subjects reporting nausea ([2]; multiple doses 1100 mg BID) was 2 subjects, the subjects reporting nausea ([2]; multiple doses 1650 mg BID) was 5 subjects and the subjects with vomiting ([2]; multiple doses 1650 mg BID) was 4 subjects. The “Adverse Event (treatment-emergent, per subject and day)” value ([2]; single dose 1650 mg) was “None”, the “Adverse Event (treatment-emergent, per subject and day)” value ([2]; single dose 2200 mg) was “Nausea; also recorded: Vomiting; also recorded: Abdomen distention” and the “gastrointestinal AEs” value ([2]; single dose, 550, 1100 or 1650 mg cohorts) was “no gastrointestinal AEs”. The tolerability ([2]; single doses up to 2200 mg) was “safe and well tolerated”, the “changes in physical examinations, vital signs, ECGs, or laboratory parameters” value ([2]; single doses up to 2200 mg, multiple doses up to 1650 mg for 5.5 days, or loading dose regimens for 7.5 days) was “no clinically significant changes” and the “overall safety and tolerability” value ([2]; whole study) was “safe and generally well tolerated”. For the same compound, the “serious or life-threatening adverse events” value ([2]; whole study) was “No serious or life-threatening adverse events”, the AUC(0-t) ([3]; fasting) was 300 µg·h/mL and the AUC(0-inf) ([3]; fasting) was 318 µg·h/mL. It also gave a Cmax ([3]; fasting) of 27400 ng/mL, a half-life ([3]; fasting) of 11.8 ± 2.2 h and an AUC ([3]; fasting) of about 318 µg·h/mL. The AUC(0-t) ([3]; fed) was 269 µg·h/mL, the AUC(0-inf) ([3]; fed) was 285 µg·h/mL and the Cmax ([3]; fed) was 21200 ng/mL. The half-life ([3]; fed) was 11.5 ± 2.75 h and the AUC ([3]; fed) was about 285 µg·h/mL.
